The source of these data is ChEMBL document CHEMBL1201862, “PubChem BioAssay data set” (2004).

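Grown in 96-well plates, cells were treated for 48 hours with each compound at five concentrations. Insufficient inhibition: endpoint recorded as highest concentration tested. GI50 marks 50% less growth.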 The source made the active and inactive calls. Rule as the data show it: active = GI50 up to about 1.1 µM and inactive = higher.

Holding throughout (assay): NCI-60 cell line screen, 48 h
Test [1] has as its system PC-3.
Test [2] concerns RXF 393.
For test [3], the system named is OVCAR-3.
For test [4], the system named is HCT-15.
Test [5] deals with UO-31.
In test [6] the test system is Malme-3M.
Test [7] relates to SR.
Test [8] relates to COLO 205.
For test [9], the system named is MDA-N.
Test [10] relates to KM12.
Test [11] relates to SK-OV-3.
The subject of test [12] is SNB-75.
The test system of test [13] is HOP-62.
Test [14] deals with IGROV-1.
Test [15] concerns T47D.
In test [16] the test system is ACHN.
For test [17], the system named is HCC 2998.
In test [18] the test system is CCRF-CEM.
Test [19] deals with MCF7.
Test [20] concerns NCI-H23.

Consider `Cc1ccc(NCCN(C)C)c2c(=O)c3cc(O)ccc3sc12`, for which the GI50 in [1] was 1.22 µM (inactive); in [2], 1.22 µM (inactive); in [3], 9.33 µM (inactive); in test [4], 2.69 µM; in [5] it was 4.23 µM (inactive); in test [6], 5.28 µM (inactive). Also, the GI50 is 0.241 µM (active) in [7]; 8.85 µM (inactive) in test [8]; 2.04 µM (inactive) in test [9]; 4.28 µM (inactive) in test [10]; 3.33 µM (inactive) in test [11]; 1.34 µM (inactive) in test [12]. The GI50 in test [13] was 0.586 µM (active); in test [14], 4.47 µM (inactive); in [15], 7.91 µM (inactive); in [16], 1 µM (active); in [17] it was 3.79 µM (inactive); in test [18], 0.284 µM (active). The GI50 was 0.177 µM (active) in test [19] and 2.22 µM (inactive) in [20].
